{
  "source": "paper PMC12566593",
  "about": "“Effects of Different Centrifugation Parameters on Equilibrium Solubility Measurements” (Methods and Protocols, 2025)",
  "key": {"[1]": {"experiment": "Equilibrium solubility, saturation shake-flask, sedimentation as phase separation (reference, standard protocol)", "details": "for solubility: Britton-Robinson buffer", "description": "BR buffers were used in the experiments across a pH range of 2.0 to 11.0, prepared by combining 0.04 M acetic acid, 0.04 M phosphoric acid, and 0.04 M boric acid. The mixture was then titrated with varying amounts of 0.2 M NaOH to achieve the desired pH values. The ionic strength was kept constant (I = 0.15) across all pH values using appropriate amounts of inert KCl. […] Different amounts of 0.2 M NaOH were used to adjust the pH of the buffer to the desired values, between pH 2.0 and 11.0.\n(§1) Samples were stirred using the μDISS Profiler™ (Pion Inc., Billerica, MA, USA) at 150 rpm [33], the pH was checked after 1 h and adjusted, if necessary, with either 0.1 M HCl or 0.1 M NaOH. To confirm the reliability of the results, the pH was measured again at the end of each experiment. Prior to centrifugation, two different approaches were applied: stirring samples for 6 h, followed by 18 h of sedimentation, according to the standardized protocol [18], or continuously stirring samples for 24 h, without a subsequent sedimentation step.\n(§2) After centrifugation, the concentration was measured by the μDISS Profiler™ (Pion Inc., Billerica, MA, USA) equipped with UV probes. The aliquots were diluted with the buffer solution if necessary. The 2nd derivative method was utilized in the AuPRO™ 7.1 software (Pion Inc., Billerica, MA, USA) to determine the concentration of the samples after a calibration was conducted for each substance. Calibration was performed by adding small volumes of methanolic stock solutions with known concentrations to buffer solutions of defined pH. Separate calibration curves were prepared for each UV probe.\nAt least three parallel measurements were carried out for each compound with each combination of variables (Table S1)."}, "[2]": {"experiment": "Ionization state calculated from pKa and buffer pH", "assay_type": "physicochemical", "details": "pH 6.4", "description": "Depending on the pH, the molecule exists as the neutral acid (H2A), monoanion (HA^−), or dianion (A^2−). […] These values were derived from the mole fraction (x) of the various species, based on the compound’s known pKa values and the corresponding buffer pH (Equations (3)–(6))."}, "[3]": {"experiment": "Equilibrium solubility, saturation shake-flask, centrifugation as phase separation", "details": "for solubility thermodynamic / solubility thermodynamic at 24 h: Britton-Robinson buffer; for solubility thermodynamic: sedimented before centrifugation; for solubility thermodynamic at 24 h: continuously stirred, no sedimentation; for Centrifugation: Result Range: % of reference, all centrifugation protocols", "protocol": "To determine equilibrium solubility, the samples were added to Britton-Robinson buffer solutions (BRB) adjusted to specific pH values, obtaining a heterogenous system (Table S2). BR buffers were used in the experiments across a pH range of 2.0 to 11.0, prepared by combining 0.04 M acetic acid, 0.04 M phosphoric acid, and 0.04 M boric acid. The mixture was then titrated with varying amounts of 0.2 M NaOH to achieve the desired pH values. The ionic strength was kept constant (I = 0.15) across all pH values using appropriate amounts of inert KCl. […] The exception was progesterone, a neutral molecule, for which only a single pH condition was necessary. […] This strategy enabled a more comprehensive assessment of how centrifugation parameters influence solubility. Different amounts of 0.2 M NaOH were used to adjust the pH of the buffer to the desired values, between pH 2.0 and 11.0.\nas §1\nFrom each sample, aliquots of 10 mL were transferred into centrifugation tubes and centrifuged using a Sartorius 2–16P type centrifuge.\nas §2\nAt least three parallel measurements were carried out for each compound with each combination of variables (Table S1). Equilibrium solubility measurements using centrifugation were compared to those obtained by using only sedimentation."}, "[4]": {"details": "cited from earlier work; for Filtration: Result Range: % of reference, all filters"}},
  "note": "Counter-ions that a name gives are not always drawn. Like-named read-outs stand apart in the source and are kept apart here.",
  "data": [
    {"smiles": "COc1ccc(Cc2nccc3cc(OC)c(OC)cc23)cc1OC", "note": "[PAP-HCL, papaverine hydrochloride]", "values": [
      {"measurement": "solubility", "setting": "[1]; 25 °C, pH 3, aqueous buffer, thermodynamic from solid, Solubility (reference), pH 3.0, 6 h stirring, 18 h sedimentation", "result": 40400, "unit": "µg/mL"},
      {"measurement": "solubility", "setting": "[1]; 25 °C, pH 6.4, aqueous buffer, thermodynamic from solid, Solubility (reference), pH 6.4, 6 h stirring, 18 h sedimentation", "result": "24.2 ± 1.1", "unit": "µg/mL"},
      {"measurement": "solubility", "setting": "[1]; pH 10, Solubility (reference), pH 10.0, 6 h stirring, 18 h sedimentation, 25 °C", "result": "~17", "unit": "µg/mL"},
      {"measurement": "Solubility at pH 3.0 relative to pH 10.0", "setting": "[1]; fully ionized vs neutral form", "result": "around 2350 times"},
      {"measurement": "Solubility (reference)", "setting": "[1]; pH 10.0, 6 h stirring, 18 h sedimentation, 25 °C", "result": "16.9 ± 1.7", "unit": "µg/mL"},
      {"measurement": "Fraction ionized", "setting": "[2]", "result": 50, "unit": "%"},
      {"measurement": "Solubility higher than the reference", "setting": "[3]; 10,000 rpm for 20 min without prior sedimentation", "result": "60–70%"},
      {"measurement": "solubility thermodynamic", "setting": "[3]; 25 °C, pH 3, aqueous buffer, thermodynamic from solid, Equilibrium solubility S sed, pH 3.0, 5000 rpm, 5 min", "result": 37200, "unit": "µg/mL"},
      {"measurement": "solubility thermodynamic", "setting": "[3]; 25 °C, pH 3, aqueous buffer, thermodynamic from solid, Equilibrium solubility S sed, pH 3.0, 5000 rpm, 10 min", "result": 38000, "unit": "µg/mL"},
      {"measurement": "solubility thermodynamic", "setting": "[3]; 25 °C, pH 3, aqueous buffer, thermodynamic from solid, Equilibrium solubility S sed, pH 3.0, 5000 rpm, 20 min", "result": 37100, "unit": "µg/mL"},
      {"measurement": "solubility thermodynamic", "setting": "[3]; 25 °C, pH 3, aqueous buffer, thermodynamic from solid, Equilibrium solubility S sed, pH 3.0, 10,000 rpm, 5 min", "result": 39500, "unit": "µg/mL"},
      {"measurement": "solubility thermodynamic", "setting": "[3]; 25 °C, pH 3, aqueous buffer, thermodynamic from solid, Equilibrium solubility S sed, pH 3.0, 10,000 rpm, 10 min", "result": 40900, "unit": "µg/mL"},
      {"measurement": "solubility thermodynamic", "setting": "[3]; 25 °C, pH 3, aqueous buffer, thermodynamic from solid, Equilibrium solubility S sed, pH 3.0, 10,000 rpm, 20 min", "result": 39500, "unit": "µg/mL"},
      {"measurement": "solubility thermodynamic at 24 h", "setting": "[3]; 25 °C, pH 3, aqueous buffer, thermodynamic from solid, Equilibrium solubility S stir, pH 3.0, 5000 rpm, 5 min", "result": 36800, "unit": "µg/mL"},
      {"measurement": "solubility thermodynamic at 24 h", "setting": "[3]; 25 °C, pH 3, aqueous buffer, thermodynamic from solid, Equilibrium solubility S stir, pH 3.0, 5000 rpm, 10 min", "result": 41100, "unit": "µg/mL"},
      {"measurement": "solubility thermodynamic at 24 h", "setting": "[3]; 25 °C, pH 3, aqueous buffer, thermodynamic from solid, Equilibrium solubility S stir, pH 3.0, 5000 rpm, 20 min", "result": 38400, "unit": "µg/mL"},
      {"measurement": "solubility thermodynamic at 24 h", "setting": "[3]; 25 °C, pH 3, aqueous buffer, thermodynamic from solid, Equilibrium solubility S stir, pH 3.0, 10,000 rpm, 5 min", "result": 39100, "unit": "µg/mL"},
      {"measurement": "solubility thermodynamic at 24 h", "setting": "[3]; 25 °C, pH 3, aqueous buffer, thermodynamic from solid, Equilibrium solubility S stir, pH 3.0, 10,000 rpm, 10 min", "result": 40400, "unit": "µg/mL"},
      {"measurement": "solubility thermodynamic at 24 h", "setting": "[3]; 25 °C, pH 3, aqueous buffer, thermodynamic from solid, Equilibrium solubility S stir, pH 3.0, 10,000 rpm, 20 min", "result": 39300, "unit": "µg/mL"},
      {"measurement": "solubility thermodynamic", "setting": "[3]; 25 °C, pH 6.4, aqueous buffer, thermodynamic from solid, Equilibrium solubility S sed, pH 6.4, 5000 rpm, 5 min", "result": "24.4 ± 0.48", "unit": "µg/mL"},
      {"measurement": "solubility thermodynamic", "setting": "[3]; 25 °C, pH 6.4, aqueous buffer, thermodynamic from solid, Equilibrium solubility S sed, pH 6.4, 5000 rpm, 10 min", "result": "28.2 ± 0.78", "unit": "µg/mL"},
      {"measurement": "solubility thermodynamic", "setting": "[3]; 25 °C, pH 6.4, aqueous buffer, thermodynamic from solid, Equilibrium solubility S sed, pH 6.4, 5000 rpm, 20 min", "result": "28.2 ± 0.73", "unit": "µg/mL"},
      {"measurement": "solubility thermodynamic", "setting": "[3]; 25 °C, pH 6.4, aqueous buffer, thermodynamic from solid, Equilibrium solubility S sed, pH 6.4, 10,000 rpm, 5 min", "result": "24.4 ± 1.17", "unit": "µg/mL"},
      {"measurement": "solubility thermodynamic", "setting": "[3]; 25 °C, pH 6.4, aqueous buffer, thermodynamic from solid, Equilibrium solubility S sed, pH 6.4, 10,000 rpm, 10 min", "result": "32.8 ± 0.81", "unit": "µg/mL"},
      {"measurement": "solubility thermodynamic", "setting": "[3]; 25 °C, pH 6.4, aqueous buffer, thermodynamic from solid, Equilibrium solubility S sed, pH 6.4, 10,000 rpm, 20 min", "result": "31.2 ± 1.08", "unit": "µg/mL"},
      {"measurement": "solubility thermodynamic at 24 h", "setting": "[3]; 25 °C, pH 6.4, aqueous buffer, thermodynamic from solid, Equilibrium solubility S stir, pH 6.4, 5000 rpm, 5 min", "result": "33 ± 2.11", "unit": "µg/mL"},
      {"measurement": "solubility thermodynamic at 24 h", "setting": "[3]; 25 °C, pH 6.4, aqueous buffer, thermodynamic from solid, Equilibrium solubility S stir, pH 6.4, 5000 rpm, 10 min", "result": "32.3 ± 1.54", "unit": "µg/mL"},
      {"measurement": "solubility thermodynamic at 24 h", "setting": "[3]; 25 °C, pH 6.4, aqueous buffer, thermodynamic from solid, Equilibrium solubility S stir, pH 6.4, 5000 rpm, 20 min", "result": "32.9 ± 1.26", "unit": "µg/mL"},
      {"measurement": "solubility thermodynamic at 24 h", "setting": "[3]; 25 °C, pH 6.4, aqueous buffer, thermodynamic from solid, Equilibrium solubility S stir, pH 6.4, 10,000 rpm, 5 min", "result": "28.6 ± 1.55", "unit": "µg/mL"},
      {"measurement": "solubility thermodynamic at 24 h", "setting": "[3]; 25 °C, pH 6.4, aqueous buffer, thermodynamic from solid, Equilibrium solubility S stir, pH 6.4, 10,000 rpm, 10 min", "result": "37.8 ± 2.07", "unit": "µg/mL"},
      {"measurement": "solubility thermodynamic at 24 h", "setting": "[3]; 25 °C, pH 6.4, aqueous buffer, thermodynamic from solid, Equilibrium solubility S stir, pH 6.4, 10,000 rpm, 20 min", "result": "39.1 ± 1.34", "unit": "µg/mL"},
      {"measurement": "solubility thermodynamic", "setting": "[3]; 25 °C, pH 10, aqueous buffer, thermodynamic from solid, Equilibrium solubility S sed, pH 10.0, 5000 rpm, 10 min", "result": "14.3 ± 0.17", "unit": "µg/mL"},
      {"measurement": "solubility thermodynamic", "setting": "[3]; 25 °C, pH 10, aqueous buffer, thermodynamic from solid, Equilibrium solubility S sed, pH 10.0, 10,000 rpm, 5 min", "result": "16.3 ± 0.57", "unit": "µg/mL"},
      {"measurement": "solubility thermodynamic", "setting": "[3]; 25 °C, pH 10, aqueous buffer, thermodynamic from solid, Equilibrium solubility S sed, pH 10.0, 10,000 rpm, 10 min", "result": "17.5 ± 0.18", "unit": "µg/mL"},
      {"measurement": "solubility thermodynamic", "setting": "[3]; 25 °C, pH 10, aqueous buffer, thermodynamic from solid, Equilibrium solubility S sed, pH 10.0, 10,000 rpm, 20 min", "result": "18.7 ± 2.41", "unit": "µg/mL"},
      {"measurement": "solubility thermodynamic at 24 h", "setting": "[3]; 25 °C, pH 10, aqueous buffer, thermodynamic from solid, Equilibrium solubility S stir, pH 10.0, 5000 rpm, 5 min", "result": "18.4 ± 0.28", "unit": "µg/mL"},
      {"measurement": "solubility thermodynamic at 24 h", "setting": "[3]; 25 °C, pH 10, aqueous buffer, thermodynamic from solid, Equilibrium solubility S stir, pH 10.0, 10,000 rpm, 10 min", "result": "18.2 ± 1.12", "unit": "µg/mL"},
      {"measurement": "solubility thermodynamic at 24 h", "setting": "[3]; 25 °C, pH 10, aqueous buffer, thermodynamic from solid, Equilibrium solubility S stir, pH 10.0, 10,000 rpm, 20 min", "result": "28.7 ± 0.7", "unit": "µg/mL"},
      {"measurement": "solubility thermodynamic", "setting": "[3]; pH 10, Equilibrium solubility S sed, pH 10.0, 5000 rpm, 5 min", "result": "17 ± 0.86", "unit": "µg/mL"},
      {"measurement": "solubility thermodynamic", "setting": "[3]; pH 10, Equilibrium solubility S sed, pH 10.0, 5000 rpm, 20 min", "result": "14.4 ± 0.38", "unit": "µg/mL"},
      {"measurement": "solubility thermodynamic at 24 h", "setting": "[3]; pH 10, Equilibrium solubility S stir, pH 10.0, 5000 rpm, 10 min", "result": "13.3 ± 0.2", "unit": "µg/mL"},
      {"measurement": "solubility thermodynamic at 24 h", "setting": "[3]; pH 10, Equilibrium solubility S stir, pH 10.0, 5000 rpm, 20 min", "result": "16.9 ± 0.79", "unit": "µg/mL"},
      {"measurement": "solubility thermodynamic at 24 h", "setting": "[3]; pH 10, Equilibrium solubility S stir, pH 10.0, 10,000 rpm, 5 min", "result": "17.8 ± 0.5", "unit": "µg/mL"},
      {"measurement": "Centrifugation: Closest to Reference (100%)", "setting": "[3]; pH 3.0", "result": 100, "unit": "%"},
      {"measurement": "Centrifugation: Result Range", "setting": "[3]; pH 3.0", "result": "91–102%"},
      {"measurement": "Centrifugation: Closest to Reference (100%)", "setting": "[3]; pH 6.4", "result": 101, "unit": "%"},
      {"measurement": "Centrifugation: Result Range", "setting": "[3]; pH 6.4", "result": "101–162%"},
      {"measurement": "Centrifugation: Closest to Reference (100%)", "setting": "[3]; pH 10.0", "result": 100, "unit": "%"},
      {"measurement": "Centrifugation: Result Range", "setting": "[3]; pH 10.0", "result": "78–170%"},
      {"measurement": "Solubility compared to the other samples", "setting": "[3]; pH 10.0, higher centrifugation speed, 20 min of centrifugation", "result": "nearly doubled"},
      {"measurement": "Filtration: Result Range", "setting": "[4]; pH 3.0", "result": "85–95%"},
      {"measurement": "Filtration: Closest to Reference (100%)", "setting": "[4]; pH 3.0", "result": 95, "unit": "%"},
      {"measurement": "Filtration: Result Range", "setting": "[4]; pH 6.4", "result": "42–106%"},
      {"measurement": "Filtration: Closest to Reference (100%)", "setting": "[4]; pH 6.4", "result": 95, "unit": "%"},
      {"measurement": "Filtration: Result Range", "setting": "[4]; pH 10.0", "result": "62–95%"},
      {"measurement": "Filtration: Closest to Reference (100%)", "setting": "[4]; pH 10.0", "result": 95, "unit": "%"}
    ]}
  ]
}
